Data: patent publication US11518750B2, “3-methylideneoxan-4-one compounds and substituted derivatives thereof as inhibitors of telomerase” (NORTHWESTERN UNIVERSITY, priority 2019, dated 2022)

Biological target: T1, telomerase (MCF-7 cell lysates) (Homo sapiens, UniProt O14746)
T1 construct: endogenous in cells; host or cells: MCF-7
Experiment: TRAP assay in cell lysates (PCR-based telomerase activity assay)
Format: biochemical
Conditions: TRAP assay in MCF7 cell lysate in vitro; read-out: IC50
Description: In developing a preliminary structural activity relationship (SAR) for the chrologs, we divided the structure of the pyran into four main components: (1)C-2 substituents (carboxylic acid of chrolactomycin); (2) C-6 substituents (chrolactomycin macrolide loop); (3) C-3 substituents (fused γ-lactone of chrolactomycin) and (4) inclusion of the exocyclic methylene group. We carried out systematic modifications of each structural unit and evaluated the effects on telomerase activity as measured by a PCR-based telomerase activity assay (TRAP assay).^16
Telomeric Repeat Amplification Protocol Assay. The telomeric repeat amplification protocol (TRAP) assay was performed using the TRAPeze RT Telomerase Detection Kit (EMD Millipore) and iTaq DNA polymerase (Bio-Rad) according to the manufacturer's protocol.
Cell Lysate TRAP Analysis. MCF-7, HeLa, ACHN, MDA-MB231 and A549 cells were cultured in DMEM media supplemented with 10% Fetal Bovine Serum (FBS), 1% pen/strep and with 5% CO2 and 37° C. Cells were plated in 2×T75 flasks and cultured for 3 days. Flasks were rinsed twice with PBS and treated with 0.05% trypsin-EDTA (Thermo Fisher) to detach cells. […] Cell extracts were transferred to microcentrifuge tubes, 200 μl/tube, and centrifuged at 12,000×g for 20 min at 4° C. to remove cell debris. Stock solutions of compounds were made in DMSO with a concentration of 100 mM and a […] dilution was performed in DMSO in a 96-well plate to produce compound solutions of 100, 10, 1, 0.1, 0.01, and 0.001 mM (1000× of the final concentration). The 1000× stock solutions of the compound samples were transferred to a 96-well plate using the Echo 550 (Labcyte) and then diluted with the cell extracts to yield final compound concentrations of 100, 10, 1, 0.1, 0.01, and 0.001 μM. The plate was covered and shaken at room temperature for 30 min. For TRAPeze reactions, a “master mix” was prepared according to the TRAPeze protocol, containing 5 μl of the TRAPeze reaction mix; 0.4 μl Taq polymerase; 17.6 μl PCR grade, nuclease-free water. The master mix and treated cell extracts were transferred using the Mosquito Crystal Liquid Handling System (TTP Labtech) into separate wells in a white, 384-well RT-PCR plate. Each well contained 1.2 μl of the master mix and 1.2 μl of the treated cell extract to give a final volume of 2.4 μl, with two duplicates for each sample. The RT-PCR plate was then sealed and centrifuged for 5 min. A sample containing only CHAPS Lysis Buffer was included as negative control. The TSR8 standards were included to generate a standard curve. Samples were amplified in a CFW384 RT-PCR (BioRad) detection system with PCR parameters of 30 min at 30° C. for 1 cycle, 2 min at 95° C. for 1 cycle, and then 45 cycles of 15 s at 94° C., 60 s at 59° C., and 10 s at 45° C. Real-time fluorescent data was obtained during the 10 s at 45° C. step. The number of cycles at which the fluorescence level reached a threshold (Ct) was averaged between the duplicates for each sample. Using a calibration curve obtained from the TSR8 standards, a linear equation was obtained to convert the Ct values into arbitrary telomerase activity units, which were plotted as a function of compound concentration to construct dose-response curves and calculate IC50.

T1 sequence (O14746 whole entry): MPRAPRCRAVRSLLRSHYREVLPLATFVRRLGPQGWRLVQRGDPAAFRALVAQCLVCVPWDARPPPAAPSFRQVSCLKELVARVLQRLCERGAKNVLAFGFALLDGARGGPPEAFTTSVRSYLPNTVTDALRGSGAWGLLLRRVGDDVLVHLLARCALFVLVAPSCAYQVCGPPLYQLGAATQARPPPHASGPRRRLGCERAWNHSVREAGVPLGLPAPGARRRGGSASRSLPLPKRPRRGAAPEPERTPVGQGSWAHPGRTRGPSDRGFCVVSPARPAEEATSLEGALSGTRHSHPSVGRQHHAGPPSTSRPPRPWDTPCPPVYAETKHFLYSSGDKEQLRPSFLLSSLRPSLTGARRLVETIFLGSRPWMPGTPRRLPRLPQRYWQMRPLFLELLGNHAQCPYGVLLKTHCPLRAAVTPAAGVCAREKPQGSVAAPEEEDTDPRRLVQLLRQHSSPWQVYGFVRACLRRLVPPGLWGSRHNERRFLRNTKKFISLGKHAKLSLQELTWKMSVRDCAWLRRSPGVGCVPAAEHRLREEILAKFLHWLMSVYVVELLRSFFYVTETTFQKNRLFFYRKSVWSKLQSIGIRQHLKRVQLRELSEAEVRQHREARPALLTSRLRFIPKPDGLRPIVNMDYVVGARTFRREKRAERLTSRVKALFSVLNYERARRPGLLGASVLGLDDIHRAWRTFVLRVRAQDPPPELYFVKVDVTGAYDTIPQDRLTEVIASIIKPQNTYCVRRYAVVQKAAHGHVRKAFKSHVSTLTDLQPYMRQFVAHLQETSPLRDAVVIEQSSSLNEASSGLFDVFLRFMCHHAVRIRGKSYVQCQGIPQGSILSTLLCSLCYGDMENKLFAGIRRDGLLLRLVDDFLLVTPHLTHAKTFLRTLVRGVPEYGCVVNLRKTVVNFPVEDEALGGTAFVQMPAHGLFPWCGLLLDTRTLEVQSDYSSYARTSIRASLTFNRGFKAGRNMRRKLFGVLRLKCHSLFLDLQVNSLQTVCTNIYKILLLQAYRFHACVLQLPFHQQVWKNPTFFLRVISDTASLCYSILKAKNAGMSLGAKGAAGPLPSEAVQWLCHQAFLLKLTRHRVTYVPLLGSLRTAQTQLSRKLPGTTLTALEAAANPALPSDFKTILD
T1 sequence (O60832 whole entry partner): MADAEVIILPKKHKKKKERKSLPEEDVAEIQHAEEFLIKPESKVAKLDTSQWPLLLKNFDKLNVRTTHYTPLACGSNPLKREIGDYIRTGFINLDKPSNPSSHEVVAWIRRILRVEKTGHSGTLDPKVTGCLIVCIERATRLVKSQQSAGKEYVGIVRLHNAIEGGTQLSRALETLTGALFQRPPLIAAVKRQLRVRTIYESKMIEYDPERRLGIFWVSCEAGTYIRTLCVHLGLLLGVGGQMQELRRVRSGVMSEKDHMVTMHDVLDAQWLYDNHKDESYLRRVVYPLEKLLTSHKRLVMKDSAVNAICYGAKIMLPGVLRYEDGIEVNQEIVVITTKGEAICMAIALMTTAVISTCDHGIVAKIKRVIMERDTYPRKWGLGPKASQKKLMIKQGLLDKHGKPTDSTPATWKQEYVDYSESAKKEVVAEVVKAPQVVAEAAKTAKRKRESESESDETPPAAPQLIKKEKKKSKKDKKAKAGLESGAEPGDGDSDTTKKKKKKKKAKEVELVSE
T1 sequence (Q9NPE3 whole entry partner): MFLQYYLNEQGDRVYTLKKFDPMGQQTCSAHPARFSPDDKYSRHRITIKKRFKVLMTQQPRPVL
T1 sequence (Q9NX24 whole entry partner): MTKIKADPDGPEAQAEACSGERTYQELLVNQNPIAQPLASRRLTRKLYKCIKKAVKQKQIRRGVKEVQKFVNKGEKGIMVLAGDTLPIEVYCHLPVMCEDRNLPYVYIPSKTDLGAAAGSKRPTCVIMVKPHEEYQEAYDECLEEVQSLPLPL
T1 sequence (Q9NY12 whole entry partner): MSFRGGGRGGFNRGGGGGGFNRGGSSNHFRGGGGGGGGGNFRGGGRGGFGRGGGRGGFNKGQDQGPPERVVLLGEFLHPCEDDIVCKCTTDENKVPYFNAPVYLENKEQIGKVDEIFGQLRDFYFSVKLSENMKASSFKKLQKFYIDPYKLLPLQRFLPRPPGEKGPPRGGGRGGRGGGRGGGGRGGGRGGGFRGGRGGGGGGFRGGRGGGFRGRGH
T1 sequence (Q9BUR4 whole entry partner): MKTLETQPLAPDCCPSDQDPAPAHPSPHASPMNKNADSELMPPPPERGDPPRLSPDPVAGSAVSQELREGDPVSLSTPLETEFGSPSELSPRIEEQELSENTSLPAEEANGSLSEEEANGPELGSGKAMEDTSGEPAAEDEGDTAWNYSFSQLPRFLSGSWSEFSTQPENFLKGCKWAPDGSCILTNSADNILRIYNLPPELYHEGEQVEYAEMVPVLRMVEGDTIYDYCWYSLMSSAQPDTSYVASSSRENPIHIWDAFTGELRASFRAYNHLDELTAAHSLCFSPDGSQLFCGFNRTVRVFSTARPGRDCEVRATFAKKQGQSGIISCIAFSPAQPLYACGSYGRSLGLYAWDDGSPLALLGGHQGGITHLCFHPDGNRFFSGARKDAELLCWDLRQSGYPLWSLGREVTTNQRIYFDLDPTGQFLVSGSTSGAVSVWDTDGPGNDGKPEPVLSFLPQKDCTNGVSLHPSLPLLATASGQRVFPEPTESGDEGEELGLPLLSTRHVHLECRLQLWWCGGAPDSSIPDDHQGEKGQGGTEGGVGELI

## C=C1C(=O)[C@](C)(C(=O)OC)[C@H](CCc2cn(Cc3ccc(F)cc3F)nn2)O[C@@H]1C [NU-1, methyl (2S,3R,6R)-2-(2-(1-(2,4-difluorobenzyl)-1H-1,2,3-triazol-4-yl)ethyl)-3,6-dimethyl-5 methylene-4-oxotetrahydro-2H-pyran-3-carboxylate]
  IC50: 0.09 µM
